Key:
[1] = Rat oral pharmacokinetics, one-compartment model; assay type: in vivo; details: estimate (% CV)
Procedure: (§1) Adult male Sprague Dawley rats (Charles River) were housed under controlled laboratory conditions (temperature at 21±1° C.) on a 12:12 hour light-dark cycle. Animals were given free access to food and water upon arrival to the facility and animals were acclimatized to their holding room for at least 48 hours. Animals were fasted but allowed free access to water for 15-18 hours prior to dosing.
(§2) Rats (n=6/timepoint/dose level) received a single oral dose of 4-[2-(2,4,6-trifluorophenoxymethyl)phenyl]piperidine (0.3, 1, 5, 10, 30, and 60 mg/kg) and were euthanized by decapitation at specified time points (0.5, 2, 4, 6, and 8 hr for 5 mg/kg dose level; 2 hr for 0.3, 1, 10, 30, and 60 mg/kg dose levels) post-administration. Spinal cords were dissected for ex vivo transporter occupancy and PK assessments from the same animals. The spinal cord was harvested by hydraulic extrusion using phosphate-buffered saline, and the lumbar segment dissected and frozen on dry ice. The remaining spinal cord segments were collected and homogenized in water (25% w/w) for PK analysis. All samples were stored at −80° C. until analysis.
(§3) A kinetic radioligand binding assay was used to determine NET and SERT occupancy in rat spinal cord, as described previously in Bourdet et al., J. Pharm. Exp. Ther. (2012) 341:137-145. PK/PD parameters were estimated by a compartmental modeling approach (WinNonlin Version 5.0.1, Pharsight Corporation). One- and two-compartment PK models with first-order absorption and elimination were evaluated. The one-compartment model was selected. The pharmacodynamics model was an effect compartment Emax model linked directly to the central PK compartment (WinNonlin PK Model 3, PD Model 101). Selection of models was based upon best fit in terms of visual inspection, Akaike Information Criteria, and weighted residual sum of squares using the Gauss-Newton minimization method.

[2] = molecular target: CYP2D6 (Homo sapiens, UniProt P10635); details: cited from earlier work
Chain of CYP2D6 (P10635 whole entry): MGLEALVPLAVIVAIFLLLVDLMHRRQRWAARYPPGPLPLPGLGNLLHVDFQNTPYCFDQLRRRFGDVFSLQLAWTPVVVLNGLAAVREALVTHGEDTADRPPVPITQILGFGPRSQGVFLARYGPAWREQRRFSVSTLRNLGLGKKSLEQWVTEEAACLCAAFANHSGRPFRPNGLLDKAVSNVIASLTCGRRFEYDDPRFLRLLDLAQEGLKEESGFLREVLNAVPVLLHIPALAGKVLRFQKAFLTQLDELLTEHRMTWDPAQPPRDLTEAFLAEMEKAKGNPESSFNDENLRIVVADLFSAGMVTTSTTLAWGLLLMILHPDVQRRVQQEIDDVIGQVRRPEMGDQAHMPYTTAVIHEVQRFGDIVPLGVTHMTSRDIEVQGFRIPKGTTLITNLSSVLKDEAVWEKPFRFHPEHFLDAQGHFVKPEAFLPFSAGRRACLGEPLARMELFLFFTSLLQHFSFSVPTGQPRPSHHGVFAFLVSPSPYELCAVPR

[3] = molecular target: NET (Rattus norvegicus, UniProt Q9WTR4); assay: Ex vivo transporter occupancy in rat spinal cord (PK/PD model), NET; details: estimate (% CV)
Chain of NET (Q9WTR4 1-597): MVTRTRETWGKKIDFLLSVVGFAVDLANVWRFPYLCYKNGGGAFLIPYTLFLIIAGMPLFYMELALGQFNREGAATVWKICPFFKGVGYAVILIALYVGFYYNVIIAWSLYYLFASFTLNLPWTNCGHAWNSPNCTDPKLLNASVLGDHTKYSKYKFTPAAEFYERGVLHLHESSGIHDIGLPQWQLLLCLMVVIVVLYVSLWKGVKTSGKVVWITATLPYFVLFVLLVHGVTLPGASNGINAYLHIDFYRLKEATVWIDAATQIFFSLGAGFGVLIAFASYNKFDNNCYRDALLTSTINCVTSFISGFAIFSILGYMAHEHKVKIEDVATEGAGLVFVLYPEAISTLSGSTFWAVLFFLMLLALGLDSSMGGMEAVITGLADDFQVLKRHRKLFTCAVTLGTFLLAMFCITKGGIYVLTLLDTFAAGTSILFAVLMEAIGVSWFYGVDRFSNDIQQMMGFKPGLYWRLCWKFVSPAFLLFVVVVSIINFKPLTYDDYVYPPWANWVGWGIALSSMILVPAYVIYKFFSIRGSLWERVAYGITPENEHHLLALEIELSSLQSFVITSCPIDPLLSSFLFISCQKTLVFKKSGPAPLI
Procedure: as §1, §2, §3

[4] = tested on: anesthetized rats; assay: Cardiovascular model in anesthetized rat: intrinsic effect on MAP and HR; assay type: in vivo; details: IP
Procedure: These studies were conducted to assess the effect of a single administration of 4-[2-(2,4,6-trifluorophenoxymethyl)phenyl]piperidine on heart rate (HR) and mean arterial pressure (MAP) in anesthetized rats.
Normotensive male Sprague-Dawley rats weighing between 250-350 g were anesthetized with an intraperitoneal injection (IP) of thiobutabarbital (Inactin). All animals were kept under complete anesthesia (i.e., absence of response to toe pinch test) for the surgery and for the duration of the study. The right common carotid artery and jugular vein were isolated and catheterized. The trachea was intubated to keep the airway open during the study. After completion of surgery, the arterial catheter was connected to a pressure transducer and baseline blood pressure [Systolic (SBP), Mean Arterial (MAP) and Diastolic (DBP)] and heart rate (HR) were recorded using the Notocord-HEM data acquisition system. Following at least 60 min of baseline (i.e., the last 10 min was stable), vehicle (10% Tween20, 2 mL/kg, IP) was administered and any potential effect was monitored for at least 10 min. After this period, rats were injected with either vehicle or 4-[2-(2,4,6-trifluorophenoxymethyl)phenyl]piperidine ([…], 2 mL/kg, IP) and changes in MAP and HR were monitored for 25 min. […]

[5] = molecular target: T1, SERT (Rattus norvegicus, UniProt P31652); assay: Ex vivo transporter occupancy in rat spinal cord (PK/PD model), SERT
T1 construct: Spinal cords were dissected for ex vivo transporter occupancy and PK assessments from the same animals; from tissue; host or cells: lumbar spinal cord of orally dosed male Sprague Dawley rats
T1 sequence (P31652 whole entry): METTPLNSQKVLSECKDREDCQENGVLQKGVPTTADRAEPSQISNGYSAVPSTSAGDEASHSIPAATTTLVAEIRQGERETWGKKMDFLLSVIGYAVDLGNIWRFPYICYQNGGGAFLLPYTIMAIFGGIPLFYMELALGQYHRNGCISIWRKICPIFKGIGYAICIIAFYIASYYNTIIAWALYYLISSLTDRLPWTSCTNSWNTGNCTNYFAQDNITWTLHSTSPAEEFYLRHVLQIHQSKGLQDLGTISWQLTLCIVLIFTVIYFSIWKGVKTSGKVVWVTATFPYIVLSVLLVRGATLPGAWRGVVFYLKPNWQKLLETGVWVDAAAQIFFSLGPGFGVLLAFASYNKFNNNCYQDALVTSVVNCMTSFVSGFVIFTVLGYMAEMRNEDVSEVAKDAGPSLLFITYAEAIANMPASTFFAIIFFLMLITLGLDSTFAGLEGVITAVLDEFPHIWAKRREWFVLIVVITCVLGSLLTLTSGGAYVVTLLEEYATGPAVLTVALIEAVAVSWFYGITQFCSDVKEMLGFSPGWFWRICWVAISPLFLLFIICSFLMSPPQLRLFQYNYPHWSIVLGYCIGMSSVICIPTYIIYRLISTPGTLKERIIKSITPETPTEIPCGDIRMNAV
Procedure: as §1, §2
A kinetic radioligand binding assay was used to determine NET and SERT occupancy in rat spinal cord, as described previously in Bourdet et al., J. Pharm. Exp. Ther. (2012) 341:137-145. […] One- and two-compartment PK models with first-order absorption and elimination were evaluated. […]

With Fc1cc(F)c(OCc2ccccc2C2CCNCC2)c(F)c1 [4-[2-(2,4,6-trifluorophenoxymethyl)phenyl]piperidine] the “V/F (volume of the central compartment divided by oral bioavailability)” value [1] was 54.8 (66) L/kg, the “k01 (first-order absorption rate constant)” value [1] was 0.777 (108) hr^−1 and the “k10 (elimination rate constant from the central compartment)” value [1] was 0.319 (81) hr^−1. The “reduction of metabolism by chemical inhibition of CYP2D6” value [2] was 7%, the “Emax (% occupancy), NET” value ([3]; rat spinal cord, single oral dose) was 92.0 (19) % occupancy and the EC50 ([3]; rat spinal cord) was 36.4 nM. For the same compound, the “keo (first-order equilibration rate constant), NET” value ([3]; rat) was 1.78 (57) hr^−1, the “HR EC25 (free plasma concentration that produced a change in HR of 25 bpm)” value [4] was 8.6 nM and the “MAP EC10 (free plasma concentration that produced a change in MAP of 10 mm Hg)” value [4] was 101.4 nM. For the same compound, the EC50 ([5]; projected from rat, accounting for species differences in plasma protein binding) was 74.4 nM and the “keo (first-order equilibration rate constant), SERT” value ([5]; rat, estimate (% CV)) was 11.0 (86) hr^−1.
